How the values were obtained:
Set-up in all cases: key to the marks not given beside the values
Details in all cases: purified antibody or control, 5 days incubation, calcein; four experiments in triplicate
[1] = system: MCF-7 breast cancer cell line
[2] = system: MDA-MB-231 (MB-231) breast cancer cell line; test: Live/Dead cytotoxicity assay
[3] = system: HT-29 colon cancer cell line; test: Live/Dead cytotoxicity assay
[4] = system: NCI-H460 lung cancer cell line; test: Live/Dead cytotoxicity assay
[5] = system: MDA-MB-468 (MB-468) breast cancer cell line; test: Live/Dead cytotoxicity assay
[6] = system: OVCAR-3 ovarian cancer cell line; test: Live/Dead cytotoxicity assay
[7] = system: PC-3 prostate cancer cell line
[8] = system: SW1116 colon cancer cell line
[9] = system: SW620 colon cancer cell line; test: Live/Dead cytotoxicity assay
[10] = system: CCD-27sk non-cancer cell line
[11] = system: Hs888.Lu non-cancer cell line

[N-]=[N+]=[N-].[Na+] [NaN3]
In Vitro Cytotoxicity, MCF-7 [1]: +++ | In Vitro Cytotoxicity, MB-231 [2]: +++ | In Vitro Cytotoxicity, HT-29 [3]: +++ | In Vitro Cytotoxicity, NCI H460 [4]: +++ | In Vitro Cytotoxicity, MB-468 [5]: +++ | In Vitro Cytotoxicity, OVCAR [6]: +++ | In Vitro Cytotoxicity, PC-3 [7]: +++ | In Vitro Cytotoxicity, SW1116 [8]: ++

C[C@@H]1C[C@@H]([C@H](O)CC2CC(=O)NC(=O)C2)C(=O)[C@@H](C)C1 [CHX, Cycloheximide]
In Vitro Cytotoxicity, MCF-7 [1]: +++ | In Vitro Cytotoxicity, SW620 [9]: ++ | In Vitro Cytotoxicity, MB-231 [2]: ++ | In Vitro Cytotoxicity, CCD 27sk [10]: +++ | In Vitro Cytotoxicity, Hs888 Lu [11]: +++ | In Vitro Cytotoxicity, HT-29 [3]: +++ | In Vitro Cytotoxicity, NCI H460 [4]: ++ | In Vitro Cytotoxicity, MB-468 [5]: +++ | In Vitro Cytotoxicity, OVCAR [6]: +++ | In Vitro Cytotoxicity, PC-3 [7]: +++ | In Vitro Cytotoxicity, SW1116 [8]: +++
